Source: patent US5856506A, “Phosphatase inhibitors and methods of use thereof” (University of Pittsburgh, priority 1997, dated 1999)
Like-named read-outs stand apart in the source and are kept apart here.

Tested on: human MDA-MB-231 breast cancer cells
Test: Antiproliferative activity, tetrazolium reduction assay (Lazo method), 72 h
Assay type: cell-based
Conditions: for IC50: MDA-MB-231, 72 h continuous treatment, read-out: concentration causing 50% growth inhibition
Source text: The ability of the compounds of the present invention to inhibit proliferation can be assessed by methods known to those of ordinary skill in the art. For example, proliferating cells can be contacted with a compound of the invention, and cell numbers determined. A reduction in cell number in treated versus untreated cells provides a measure of the ability of the present compounds to inhibit proliferation. In a preferred embodiment the cells to be treated are cancer cells, for example breast cancer cells such as the CDC25B+ breast cancer cells MDA-MB-231, which are available from the American Type Culture Collection (Accession No. HTB-26). The antiproliferative activity of the present compounds can also be measured by the assay described by Lazo et al. (1995) J. Biol. Chem. 270: 5506, the disclosure of which is incorporated herein by reference. The microtiter-based calorimetric assay is based upon the reduction of 3-[4,5-dimethylthiazol-2-yl]-2,5-diphenyl tetrazolium bromide by living cells, and permits evaluation of the cytostatic or cytotoxic actions of large numbers of compounds quickly in mouse embryonic fibroblasts and human CDC25B+ breast cancer cells. Briefly, exponentially growing CDC25B+ MDA-MB-231 cells are treated continuously with from 0 to 100 μM of a compound of the invention, and cell proliferation is determined calorimetrically after 72 hours by assessing the ability of the cells to reduce 3-[4,5-dimethylthiazol-2-yl]-2,5-diphenyl tetrazolium bromide.
Human MDA-MB-231 breast carcinoma cells were obtained from the American Type Culture Collection at passage 28 and were maintained for no longer than 20 passages. The cells were grown in RPMI-1640 supplemented with 1% penicillin (100 μg/mL) and streptomycin (100 μg/mL), 1% L-glutamate,and 10% fetal bovine serum in a humidified incubator at 37° C. under 5% CO2 in air. Cells were routinely found free of mycoplasma. To remove cells from the monolayer for passage or flow cytometry, cells were washed two times with phosphate buffer and briefly (<3 min) treated with 0.05% trypsin/2 mM EDTA at room temperature. After the addition of at least two volumes of growth medium containing 10W fetal bovine serum, the cells were centrifuged at 1,000×g for 5 min. Compounds were made into stock solutions using DMSO, and stored at -20° C. All compounds and controls were added to obtain a final concentration of 0.1-0.2% (v/v) of the final solution for experiments.
The antiproliferative activity of the compounds was determined by the method of Lazo et al. (1995) J. Biol. Chem. 270:5506. Briefly, cells (6.5×10^3 cells/cm^2) were plated in 96 well flat bottom plates for the cytotoxicity studies and incubated at 37° C. for 48 h. The plating medium was aspirated off 96 well plates and 200 μL of growth medium containing the compound was added per well. Compounds were used at from O to the highest available concentration which ranged from 30 to 100 μM. Plates were incubated for 72 h, and then washed 4× with serum free medium. After washing, 50 μL of 3-[4,5-dimethylthiazol-2-yl]-2,5-diphenyl tetrazolium bromide solution (2 mg/mL) was added to each well, followed by 150 μL of complete growth medium. Plates were then incubated an additional 4 h at 37° C. The solution was aspirated off, 200 μL of DMSO added, and the plates were shaken for 30 min at room temperature. Absorbance at 540 nm was determined with a Titertek Multiskan Plus plate reader. Biologically active compounds were tested at least 3 independent times.

## CCCCCCCCCC(=O)NC(CCC(=O)N(CCNC(=O)c1nc(-c2ccccc2)oc1-c1ccccc1)Cc1ccccc1)C(=O)O (stereo not shown) [Compound 1f]
Homo sapiens, MDA-MB-231, 72 h
  IC50: 100 µM
MDA-MB-231, 72 h
  concentration dependence of growth inhibition (in words): concentration-dependent inhibition in proliferation
MDA-MB-231, 72 h, listed as if
  concentration dependence of growth inhibition (in words): clear concentration-dependency
  IC50: 88 to 100 µM
